Source: the supplement of paper PMC10307832

Assays:
Experiment in all cases: relative viability (nuclei count vs DMSO), 5 days (fraction); higher = more cells survive
Masitinib + Dasatinib = compound: Cc1ccc(NC(=O)c2ccc(CN3CCN(C)CC3)cc2)cc1Nc1nc(-c2cccnc2)cs1 [Masitinib] + Cc1nc(Nc2ncc(C(=O)Nc3c(C)cccc3Cl)s2)cc(N2CCN(CCO)CC2)n1 [Dasatinib] (partner 0.075 µM)
Summary of the method: (§1)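 Lung cancer cell lines, seeded in 1536-well plates, were treated the following day by pin tool with a single drug or with five library-drug doses (not always all listed) in √10 steps on top of a fixed anchor-drug dose. Cells were fixed and nuclei stained in one step after 5 days, and nuclei were counted. Relative viability is the nuclei count for treated wells divided by that for vehicle wells, reported as medians of duplicate plates.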

[1] = compound: CC1=CC(=CC=C1)NC2=NC(=CS2)C3=CC=NC=C3 + Nc1ncn([C@H]2C[C@H](O)[C@@H](CO)O2)c(=O)n1 [Decitabine] (partner 2 µM)
Summary of the method: as §1

Masitinib + Luminespib = compound: Cc1ccc(NC(=O)c2ccc(CN3CCN(C)CC3)cc2)cc1Nc1nc(-c2cccnc2)cs1 [Masitinib] + CCNC(=O)c1noc(-c2cc(C(C)C)c(O)cc2O)c1-c1ccc(CN2CCOCC2)cc1 [Luminespib] (partner 0.01 µM)
Summary of the method: as §1

[2] = compound: CC1=CC(=CC=C1)NC2=NC(=CS2)C3=CC=NC=C3 + CC(C)C[C@H](NC(=O)[C@H](Cc1ccccc1)NC(=O)c1cnccn1)B(O)O [Bortezomib] (partner 0.002 µM)
Summary of the method: as §1

Cell Line	relative viability (Masitinib + Dasatinib; first compound 0.01 µM)	relative viability (Masitinib + Dasatinib; first compound 0.03162 µM)	relative viability (Masitinib + Dasatinib; first compound 0.1 µM)	relative viability (Masitinib + Dasatinib; first compound 0.3162 µM)	relative viability (Masitinib + Dasatinib; first compound 1 µM)	relative viability ([1]; first compound 0.08 µM)	relative viability ([1]; first compound 0.253 µM)	relative viability ([1]; first compound 0.8 µM)	relative viability ([1]; first compound 2.53 µM)	relative viability ([1]; first compound 8 µM)	relative viability (Masitinib + Luminespib; first compound 0.03162 µM)	relative viability (Masitinib + Luminespib; first compound 0.1 µM)	relative viability (Masitinib + Luminespib; first compound 0.3162 µM)	relative viability (Masitinib + Luminespib; first compound 1 µM)	relative viability ([2]; first compound 0.08 µM)	relative viability ([2]; first compound 0.253 µM)	relative viability ([2]; first compound 0.8 µM)	relative viability ([2]; first compound 2.53 µM)	relative viability ([2]; first compound 8 µM)	relative viability (Masitinib + Luminespib; first compound 0.01 µM)
NCI-H23	0.713	0.69	0.786	0.859	0.805	0.327	0.274	0.32	0.299	0.32	0.253	0.221	0.22	0.206	1.17	1.08	1.29	0.866	0.739	
NCI-H322M	0.259	0.286	0.236	0.236	0.253	0.736	0.703	0.67	0.706	0.691	0.924	0.878	0.876	0.812	1.18	1.29	1.14	1.22	1.03	0.875
NCI-H441	0.846	0.623	0.723	0.659	0.511	0.266	0.263	0.302	0.226	0.243	0.402	0.349	0.407	0.318	0.423	0.361	0.427	0.53	0.136	0.288
NCI-H460	0.392	0.447	0.561	0.344	0.485	0.445	0.432	0.464	0.405	0.402	0.0362	0.0338	0.0453	0.0276	1.03	1.13	0.945	0.902	0.843	0.0454
NCI-H520	0.245	0.225	0.247	0.292	0.215	0.55	0.468	0.541	0.586	0.61	0.24	0.24	0.217	0.2	0.586	0.505	0.56	0.786	0.235	0.223
NCI-H596	0.594	0.566	0.675	0.667	0.615	0.923	1.02	0.836	0.899	0.91	1.03	1.11	0.53	1.02	0.845	1.08	0.893	0.853	0.74	0.936
NCI-H647	0.181	0.208	0.186	0.171	0.155	0.3	0.437	0.443	0.365	0.436	0.141	0.13	0.195	0.259	0.826	0.92	0.965	0.836	0.621	0.223
NCI-H650	0.516	0.429	0.482	0.313	0.415	0.331	0.3	0.336	0.386	0.334	0.908	0.798	0.853	0.766	0.76	0.72	1.09		0.857	0.7
